Experimental data: the METLIN SMRT retention time set (Domingo-Almenara et al. 2019)

Assay: gradient 5% acetonitrile 3 min, to 50% in 2 min, to 85% in 15 min, held 3 min, 100 µL/min
Conditions: column: Zorbax Extend-C18 2.1 x 50 mm; eluents: water / acetonitrile, 0.1% formic acid
Outline: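 The system's dead and dwell volumes were 40 μL and 900 μL, with a Zorbax Extend-C18 column (2.1 × 50 mm, 1.8 μm) run at 100 μL/min in water and acetonitrile containing 0.1% formic acid each. Pure standards were analyzed in mixtures of ~100 molecules by HPLC–quadrupole time-of-flight mass spectrometry in positive and negative ionization mode. Retention time was assigned from computationally picked, manually inspected adduct peaks.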

RP-LC retention time | SMILES
1030 s | CSc1ccc(CNC(=O)CCCn2nc(-n3cccc3)c3c(C)cc(C)nc32)cc1
648 s | Cc1nnc(-c2ccc3ccn(CC(=O)NCCc4ccc(S(N)(=O)=O)cc4)c3c2)o1
634 s | COc1cc(NC(=O)C2CCCN(c3nnc4ccccn34)C2)cc(OC)c1OC (stereo not drawn)
821 s | COc1ccc(OC)c(NS(=O)(=O)c2cc3c(s2)CCN(C(=O)C2CC2)C3)c1
691 s | O=C(Cc1c(F)cccc1Cl)Nc1nnc(C2CC(=O)N(c3ccccc3)C2)o1 (stereo not drawn)
663 s | Cn1ccc2cc(S(=O)(=O)N3CCCC(C(=O)N4CCN(c5ccccn5)CC4)C3)ccc21 (stereo not drawn)
1030 s | COc1ccc(N2CCN(c3cc(SCC(=O)Nc4cc(OC)ccc4OC)ncn3)CC2)cc1
701 s | CCc1nnc(NC(=O)Cc2csc(-n3cccc3)n2)s1
808 s | CCc1noc(NC(C)=O)c1-c1ccc(C)c(S(=O)(=O)NC2CCCC2)c1
818 s | Cc1ccccc1N1C(=O)CN(S(C)(=O)=O)CC1(C)C(=O)NCc1ccc(F)cc1 (stereo not drawn)
846 s | CCOc1ccccc1NS(=O)(=O)c1cc(-c2c(CC)noc2NC(C)=O)ccc1C
1130 s | O=C(CSC1=Nc2ccccc2N=C(c2ccc(F)cc2)C1)NC1CCCC1
809 s | Cn1nc(-c2nc(C3CC3)no2)c2c1CCN(C(=O)Nc1ccccc1)C2
915 s | CCOc1ccccc1NC(=O)N1CCN(c2ccc(=O)n(-c3ccc(C)cc3)n2)CC1
743 s | NC(=O)c1cc(-c2ccccc2)nc2ccccc12
724 s | CCOc1ccccc1NC(=O)Cn1nc2c3sc(N(C)C)nc3ncn2c1=O
595 s | COC(=O)c1c(C)[nH]c(C(=O)N2CCC(CC(=O)NCc3ccc(N(C)C)cc3)CC2)c1C
867 s | Cc1ccc(Cl)cc1NC(=O)NC1CCN(c2ccc(F)cc2)C1=O (stereo not drawn)
834 s | CCOC(=O)c1nc(SC)n(C)c1C(=O)OCC
1010 s | Cc1ccc(-c2cc3c(N4CCCC(C(=O)NC5CCCCC5)C4)nccn3n2)c(C)c1 (stereo not drawn)
574 s | COc1ccccc1CNC(=O)Cn1c(N)nc(C)cc1=O
689 s | O=C(CCC1CCN(c2cc(NC3CC3)ncn2)CC1)NCc1ccc(F)cc1Cl

RP-LC retention time | SMILES
668 s | Cn1ccc2cc(S(=O)(=O)N3CCCC(C(=O)NCCN4CCCCCC4)C3)ccc21 (stereo not drawn)
665 s | Cc1c(C(=O)N2CCc3nc(NC(=O)C4CCCO4)sc3C2)cnn1-c1ccccc1 (stereo not drawn)
1020 s | CCn1ccc(C(=O)Nc2cnc(-c3cccc(Cl)c3)nc2)n1
577 s | COc1ccc(NC(=O)N2CCN(c3cnn4c(C)nnc4c3)CC2)c(OC)c1
655 s | Cn1nc2n(c1=O)CCN(S(=O)(=O)c1ccc(C#N)cc1)CC2
791 s | COC(=O)c1cc(OCC(=O)NC2CCCCC2)c2cc(OC)ccc2n1
616 s | COc1cccc(NC(=O)N2CCN(c3nc4ccccc4n3C)CC2)c1
852 s | O=C(Nc1ccc(F)c(F)c1)C1CCN(C(=O)c2ncn3c2COC(c2ccc(F)cc2)C3)CC1 (stereo not drawn)
756 s | Cc1csc(-c2ccc(N3CCN(C(=O)c4cccc5[nH]ccc45)CC3)nc2)n1
737 s | Cn1ccc2ccn(CC(=O)Nc3ccccc3)c(=O)c21
758 s | O=C(NCc1ccccc1F)c1cn(-c2cc(N3CCOCC3)ncn2)cn1
685 s | O=C(c1nc(Nc2ccc(F)cc2)c2ccccc2n1)N1CCOCC1
778 s | CN(C)C(=O)c1ccc2c(c1)N(CC(=O)N1CCN(c3ccccc3)CC1)C(=O)C1CCCCN21 (stereo not drawn)
855 s | O=C(NCC1CCCO1)c1cccn1Cc1noc(-c2ccccc2)n1 (stereo not drawn)
858 s | CCNC(=O)c1cnn(-c2cc(-c3nc(C(C)C)no3)ccn2)c1C
958 s | COc1ccc(-c2noc(-c3ncn4c3COC(c3ccc(F)cc3)C4)n2)cc1OC (stereo not drawn)
585 s | COCCN1C(=O)[C@H]2CN(Cc3ccc(F)cc3)C[C@H]2C1=O
990 s | Cc1nc(-c2ccc(N3CCN(C(=O)c4cc(Cl)ccc4F)CC3)nc2)sc1C
618 s | Cc1cc(C)c2c(N3CCSCC3)nc(C(=O)NC(C)c3ccccn3)nc2n1 (stereo not drawn)
906 s | N#Cc1ccsc1NC(=O)C1CCN(S(=O)(=O)c2ccc(Cl)s2)CC1
905 s | CCn1c(=O)sc2cc(S(=O)(=O)N3CCC(C(=O)Nc4ccc(C)c(Cl)c4)CC3)ccc21
932 s | CCCCC(=O)Nc1nc(-c2ccc3c(c2)N(CC)C(=O)CO3)cs1

RP-LC retention time | SMILES
596 s | Cc1ccsc1C(=O)NCCn1c(C)cnc1C1CCC1
761 s | C#CCOCC1CCN(C(=O)Cc2noc3ccccc23)CC1
997 s | COc1ccc(Nc2nccc(C3CCCN(C(=O)C4CCCCC4)C3)n2)cc1 (stereo not drawn)
1190 s | Cc1cc(C)c(NS(=O)(=O)c2cc(-c3nc(C)cs3)sc2C)c(C)c1
1120 s | Cc1cc(C)n(-c2nc(CC(=O)Nc3nc(-c4ccccc4)cs3)cs2)n1
847 s | O=C(CN1C(=O)CCCc2cc(S(=O)(=O)N3CCCCC3)ccc21)NCc1ccccc1
803 s | CC1(C)CC(=O)c2cn(-c3ccccc3)c(=O)c(C(=O)Nc3ccccc3)c2C1
751 s | Cn1c(=O)c2nc(SCCC(=O)Nc3cc(F)cc(F)c3)n(C)c2n(C)c1=O
649 s | Cc1ccc(NC(=O)N(CCc2cccs2)Cc2cccnc2)cc1C
589 s | Cc1cnc(C2CNC2)n1Cc1ccccc1
673 s | CNC(=O)C1CCN(C(=O)Nc2ccc(NC(=O)Nc3ccc(C)cc3C)cc2)CC1
802 s | CCOC(=O)c1cccc(N2C=C(C(=O)N3CCCC3)S(=O)(=O)c3ccccc32)c1
768 s | N#Cc1ccc(C(=O)NC2CC(=O)N(Cc3ccccc3)C2)cc1 (stereo not drawn)
687 s | COc1cccc(OCC(O)CN2CCN(c3ccc(F)cc3)CC2)c1 (stereo not drawn)
650 s | CCN1CCN(C(=O)C2CCN(S(=O)(=O)c3ccc4c(c3)sc(=O)n4C(C)C)CC2)CC1
851 s | CCOc1ccc(NC(=O)Cn2ccc3ccc(-c4nnc(CC)o4)cc32)cc1
1280 s | CCOc1ccccc1NC(=O)c1c(O)c2cccnc2n(-c2ccc(F)cc2)c1=O
1030 s | CC1CCN(C(=O)C2=NN(Cc3ccccc3F)c3ccccc3S2(=O)=O)CC1
669 s | Cc1cccc(N2CCN(CC(O)c3ccc4c(c3)OCO4)CC2)c1 (stereo not drawn)
1040 s | CCC(CC)C(=O)Nc1nc(-c2ccccc2)c(-c2ccccc2)o1
1080 s | Cc1ccc(NC(=O)N2CCc3nc(-c4ccc(F)cc4)ncc3C2)c(Cl)c1
1230 s | Cc1ccc(-c2noc(Cc3nnc(-c4cccc(Br)c4)o3)n2)cc1C

RP-LC retention time | SMILES
777 s | COc1ccc(NC(=O)C2CCCN(c3ncnc4c3nc3n4CCCCC3)C2)c(OC)c1 (stereo not drawn)
702 s | CCn1c(=O)n(CC)c2cc(NC3=C(C(N)=O)S(=O)(=O)c4ccccc43)ccc21
550 s | CC(C)CNC(=O)N1CCCC(Cc2nncn2C)C1 (stereo not drawn)
694 s | CCCN(CCC)C(=O)C1CCN(S(=O)(=O)c2ccc3c(c2)CCCC(=O)N3)CC1
1020 s | CN(C)c1ccc(C(=O)N2CCCC2c2nc(-c3ccc(F)cc3)no2)cc1 (stereo not drawn)
611 s | Cn1ncc2c3ccccc3n(CC(=O)N3CCC(C(N)=O)CC3)c2c1=O
987 s | Cc1ccc(NC(=O)c2cn(C)nc2S(=O)(=O)N2CCSCC2)cc1C
786 s | COC(=O)c1cccc(NC(=O)Cn2nc3c(N4CCC(C)CC4)nccn3c2=O)c1
1060 s | COCCCn1c(=O)c2ccccc2n(Cc2nc(-c3ccc(C)cc3)no2)c1=O
729 s | O=C(NC1CCCCCC1)c1cccc(Cn2cncn2)c1
875 s | CCC(C(=O)N1CCN(c2ncccn2)CC1)n1c2ccccc2c2cnn(C)c(=O)c21 (stereo not drawn)
850 s | Cc1cc(C)cc(C(=O)N2CCC3(CC2)NC(=O)c2cc(Cl)ccc2N3C)c1
951 s | COc1ccc(-c2csc3c(=O)n(Cc4ccc(F)cc4)cnc23)cc1OC
1050 s | CCn1cc(-c2nc(C(=O)Nc3ccc(C#N)cc3)cs2)c2cccnc21
750 s | COC(=O)c1c(C)[nH]c(C(=O)N2CCC(CC(=O)NCCc3c[nH]c4ccc(C)cc34)CC2)c1C
736 s | COc1ccc(N2CCN(C(=O)Cn3ccc4c(c(C)nn4-c4ccccc4)c3=O)CC2)cc1
674 s | COc1ccc(NC(=O)Cn2nc3n(c2=O)CCCC3)cc1Cl
908 s | Cc1cc(Cl)ccc1NC(=O)N1C[C@@H](F)C[C@H]1C(=O)N1CCc2ccccc2C1
1010 s | O=C(Cc1csc2nc(-c3cccc(Br)c3)cn12)N1CCN(c2ccccc2)CC1
912 s | CC1(C)C(=O)N(CC(=O)Nc2ccccc2Cl)c2ccccc21
796 s | CCNC(=O)c1nnn(-c2cc(C(F)(F)F)ccc2Cl)c1-c1cccnc1

SMILES | RP-LC retention time
C[C@]12CCC(=O)C(=O)C1CC[C@@H]1[C@@H]2CC[C@]2(C)C(=O)CC[C@@H]12 (stereo partly drawn) | 1030 s
